In patent EP0514133A1, “Benzodiazepine derivatives, compositions containing them and their use in therapy” (priority 1991, dated 1992):

Assays:
[1] = target: T1, CCK receptor (brain, cortex) (Cavia porcellus, UniProt H0VZC5); assay: biochemical; assay type: binding, guinea pig; details: guinea pig cortex membranes, 50 pM 125I-CCK-8, 25°C 2 hours; read-out: IC50 ^125I-CCK Brain
T1 construct: the cortex was removed and homogenized in 25 mL ice-cold 0.32 M sucrose; from tissue; host or cells: guinea pig brain cortex P2 membrane pellet
T1 sequence (H0VZC5 1-426): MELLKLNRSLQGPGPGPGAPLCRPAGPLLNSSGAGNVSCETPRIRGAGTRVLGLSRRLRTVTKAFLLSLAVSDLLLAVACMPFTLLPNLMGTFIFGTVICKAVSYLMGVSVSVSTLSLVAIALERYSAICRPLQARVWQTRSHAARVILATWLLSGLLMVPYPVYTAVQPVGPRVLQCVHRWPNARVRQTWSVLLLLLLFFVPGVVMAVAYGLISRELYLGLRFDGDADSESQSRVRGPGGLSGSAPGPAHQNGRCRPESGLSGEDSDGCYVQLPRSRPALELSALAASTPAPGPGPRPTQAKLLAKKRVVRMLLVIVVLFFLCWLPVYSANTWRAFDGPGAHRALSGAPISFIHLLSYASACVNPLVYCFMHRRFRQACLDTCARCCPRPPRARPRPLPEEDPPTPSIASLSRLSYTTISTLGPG
Procedure: CCK-8 sulphated was radiolabelled and the binding was performed according to the description for the pancreas method with minor modifications.
Male Hartley guinea pigs (300-500g) were sacrificed by decapitation and the cortex was removed and homogenized in 25 mL ice-cold 0.32 M sucrose. The homogenates were centrifuged at 1000 g for 10 minutes and the resulting supernatant was recentrifuged at 20,000 g for 20 minutes. The P₂ pellet was resuspended in binding assay buffer (20mM HEPES, 5 mM MgCl₂, 0.25 mg/ml bacitracin, 1 mM EGTA pH 6.5 at 25°C), using a Teflon (trademark) homogenizer (5 strokes at 500 rpm) to give a final concentration of 10 mg original wet weight/1.2 ml buffer. […] All assays were run in duplicate. The reaction mixtures were incubated at 25°C for 2 hours and then the reaction was terminated by rapid filtration (Brandell 24 well cell harvester) on Whatman GF/C filters with 3 x 5 ml washes of cold 100 mM NaCl. The radioactivity on the filters was counted with a LKB gamma counter.
(§1) Drug displacement studies were performed with at least 10 concentrations of compounds of Formula I and the IC₅₀ values were determined by regression analysis IC₅₀ refers to the concentration of the compound required to inhibit 50% of specific binding of ¹²⁵I-CCK-8.

[2] = target: T2, Gastrin Receptor (Cavia porcellus, UniProt H0VZC5); assay: Gastrin Receptor Binding in Guinea Pig Gastric Glands, 125I-gastrin; design: from tissue; host or cells: isolated guinea pig gastric mucosal glands; details: 0.1 nM 125I-gastrin, 25°C 30 minutes
T2 sequence (H0VZC5 1-426): T1 sequence (H0VZC5 1-426)
Procedure: Gastrin antagonist activity of compounds of Formula I was determined using the following assay.
Guinea pig gastric mucosal glands were prepared by the procedure of Chang et. al., Science, 230, 177-179 (1985) with slight modifications. […] The tissues were passed twice through a 5 ml syringe to liberate the gastric glands, and then filtered through Nitex (trademark) #202 gauge nylon mesh. The filtered glands were centrifuged at 272 g for 5 minutes and washed twice by resuspension in 25 ml buffer and centrifugation.
The washed guinea pig gastric glands prepared as above were resuspended in 25 ml of standard buffer. For binding studies, to 250 µl of gastric glands, 30 µl of buffer (for total binding) or gastrin (3 µM final concentration, for nonspecific binding) or test compound and 20 µl of ¹²⁵I-gastrin (NEN, 2200 Ci/mmole, 0.1 nM final concentration) were added. All assays were run in triplicate. […] The reaction mixtures, after incubation at 25°C for 30 minutes in a shaking water bath were rapidly filtered (Brandell 24 well cell harvester) over Whatman G/F B filters presoaked in assay buffer and immediately washed further with 3 x 4 ml of 100 mM ice cold NaCl. The radioactivity on the filters was measured using a LKB gamma counter.

[3] = target: T3, CCK receptor (pancreas) (Rattus norvegicus, UniProt P30551); assay: biochemical; assay type: binding; details: rat pancreas membranes, 50 pM 125I-CCK-8, 25°C 2 hours
T3 construct: The whole pancreas was dissected free of fat tissue and was homogenized; from tissue; host or cells: rat pancreas membrane homogenate
T3 sequence (P30551 1-444): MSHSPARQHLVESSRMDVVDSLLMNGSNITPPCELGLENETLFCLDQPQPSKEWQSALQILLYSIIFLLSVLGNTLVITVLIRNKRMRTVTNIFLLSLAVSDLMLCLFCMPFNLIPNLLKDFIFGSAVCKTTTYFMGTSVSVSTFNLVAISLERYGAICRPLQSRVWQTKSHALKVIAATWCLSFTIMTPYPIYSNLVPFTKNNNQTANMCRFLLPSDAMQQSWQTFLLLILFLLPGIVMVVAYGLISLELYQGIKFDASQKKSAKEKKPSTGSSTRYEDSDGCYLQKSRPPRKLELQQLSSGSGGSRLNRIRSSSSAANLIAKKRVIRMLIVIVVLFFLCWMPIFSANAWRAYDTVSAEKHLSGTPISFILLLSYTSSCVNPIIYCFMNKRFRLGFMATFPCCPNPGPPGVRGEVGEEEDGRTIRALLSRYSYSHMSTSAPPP
Procedure: CCK-8 sulphated was radiolabelled with ¹²⁵I-Bolton Hunter reagent (2000 Ci/mmole). Receptor binding was performed according to Chang and Lotti (Proc. Natl. Acad. Sci. 83, 4923-4926, 1986) with minor modifications.
Male Sprague-Dawley rats (150-200g) were sacrificed by decapitation. The whole pancreas was dissected free of fat tissue and was homogenized in 25 volumes of ice-cold 10 mM N-2-hydroxyethyl-piperazine-N′-2-ethane sulphonic acid (HEPES) buffer with 0.1% soya bean trypsin inhibitor (pH 7.4 at 25°C) with a Kinematica Polytron. The homogenates were centrifuged at 47,800 g for 10 min. Pellets were resuspended in 10 volumes of binding assay buffer (20mM (HEPES)), 1mM ethylene glycol-bis-(β-aminoethylether-N,N′-tetraacetic acid) (EGTA), 5mM MgCl₂, 150 mM NaCl, bacitracin 0.25 mg/ml, soya bean trypsin inhibitor 0.1 mg/ml, and bovine serum albumin 2 mg/ml pH 6.5 at 25°C) using a Teflon (trademark) homogenizer, 15 strokes at 500 rpm. The homogenate was further diluted in binding assay buffer to give a final concentration of 0.5 mg original wet weight/1 ml buffer. […] All assays were run in duplicate. The reaction mixtures were incubated at 25°C for 2 hours and the reaction terminated by rapid filtration (Brandell 24 well cell harvester) over Whatman GF/C filters, washing 3 x 4 mls with ice-cold 100 Mm NaCl. The radioactivity on the filters was counted with a LKB gamma counter.
as §1

Row | SMILES | IC50 [1] [nM] | IC50 [2] [nM] | IC50 [3] [nM]
1 | Cc1cccc(NC(=O)NC2N=C(C3CCCCC3)c3ccccc3N(C)C2=O)c1 (racemic) [Example 1, N-[3(R,S)-5-Cyclohexyl-2,3-dihydro-1-methyl-2-oxo-1H-1,4-benzodiazepin-3-yl] N′-[3-methylphenyl] urea] | 2.2 | 0.83 | –
2 | CC(C)S(=O)(=O)NC(=O)c1cccc(NC(=O)NC2N=C(C3CCCCC3)c3ccccc3N(C)C2=O)c1 (racemic) [Example 12, N-[3(R,S)-5-Cyclohexyl-2,3-dihydro-1-methyl-2-oxo-1H-1,4-benzodiazepin-3-yl] N′-[3-(isopropylsulphonylaminocarbonyl)phenyl] urea] | – | 3.24 | 12.4
3 | CN1C(=O)C(NC(=O)Nc2cccc(S(=O)(=O)Nc3nccs3)c2)N=C(C2CCCCC2)c2ccccc21 (racemic) [Example 26, N-[3(R,S)-5-Cyclohexyl-2,3-dihydro-1-methyl-2-oxo-1H-1,4-benzodiazepin-3-yl] N′-[3-(thiazol-2-ylaminosulphonyl)phenyl]urea] | 2.3 | – | 60
4 | CN1C(=O)C(NC(=O)Nc2cccc(-c3nnn(C)n3)c2)N=C(C2CCCCC2)c2ccccc21 (racemic) [Example 28, N-[3(R,S)-5-Cyclohexyl-2,3-dihydro-1-methyl-2-oxo-1H-1,4-benzodiazepin-3-yl] N′-[3-(2-methyltetrazol-5-yl)phenyl]urea] | 4 | – | 8.3
5 | CCN1C(=O)C(NC(=O)Nc2cccc(C(=O)NS(C)(=O)=O)c2)N=C(C2CCCC2)c2ccccc21 (racemic) [Example 29, N-(3(R,S)-5-Cyclopentyl-2,3-dihydro-1-ethyl-2-oxo-1H-1,4-benzodiazepin-3-yl] N′-(3-(methylsulphonylaminocarbonyl)phenyl] urea] | 6.3 | – | 22
6 | CCN1C(=O)C(NC(=O)Nc2cccc(C(=O)NS(=O)(=O)C(C)C)c2)N=C(C2CCCC2)c2ccccc21 (racemic) [Example 30, N-[3(R,S)-5-Cyclopentyl-2,3-dihydro-1-ethyl-2-oxo-1H-1,4-benzodiazepin-3-yl] N′-[3-(isopropylsulphonylaminocarbonyl)phenyl] urea] | 3.2 | – | 170
7 | CN1C(=O)C(NC(=O)Nc2cccc(S(=O)(=O)NC(=O)C(C)(C)C)c2)N=C(C2CCCCC2)c2ccccc21 (racemic) [Example 32, N-(3(R,S)-5-Cyclohexyl-2,3-dihydro-1-methyl-2-oxo-1H-1,4-benzodiazepin-3-yl] N′-(3-(1,1-dimethylethylcarbonylaminosulphonyl)phenyl] urea] | 1.3 | – | 610
8 | CCCN1C(=O)C(NC(=O)Nc2cccc(C(=O)NS(=O)(=O)C(C)C)c2)N=C(C2CCCC2)c2ccccc21 (racemic) [Example 36, N-[3(R,S)-5-Cyclopentyl-2,3-dihydro-1-propyl-2-oxo-1H-1,4-benzodiazepin-3-yl] N′-[3-(isopropylsulphonylaminocarbonyl)phenyl] urea] | 1.2 | – | 1300
9 | CCCN1C(=O)C(NC(=O)Nc2cccc(C(=O)NS(=O)(=O)C(C)(C)C)c2)N=C(C2CCCC2)c2ccccc21 (racemic) [Example 37, N-[3(R,S)-5-Cyclopentyl-2,3-dihydro-1-propyl-2-oxo-1H-1,4-benzodiazepin-3-yl] N′-[3-(1,1-dimethylethylsulphonylaminocarbonyl)phenyl] urea] | 0.19 | – | 960
10 | CC(C)S(=O)(=O)NC(=O)c1cccc(NC(=O)NC2N=C(C3CCCC3)c3ccccc3N(C)C2=O)c1 (racemic) [Example 38, N-(3(R,S)-5-Cyclopentyl-2,3-dihydro-1-methyl-2-oxo-1H-1,4-benzodiazepin-3-yl] N′-[3-(isopropylsulphonylaminocarbonyl)phenyl] urea] | 6.8 | – | 300
11 | CN1C(=O)C(NC(=O)Nc2cccc(-c3cc(=O)c(O)co3)c2)N=C(C2CCCCC2)c2ccccc21 (racemic) [Example 43, N-[3(R,S)-5-Cyclohexyl-2,3-dihydro-1-methyl-2-oxo-1H-1,4-benzodiazepin-3-yl] N′-[3-(5-hydroxy-4-pyron-2-yl)phenyl] urea] | 2.1 | – | 17.8
12 | CN1C(=O)C(NC(=O)Nc2ccc3c(c2)C(=O)NS(=O)(=O)C3)N=C(C2CCCCC2)c2ccccc21 (racemic) [Example 44, N-[3(R,S)-5-Cyclohexyl-2,3-dihydro-1-methyl-2-oxo-1H-1,4-benzodiazepin-3-yl] N′-(3,4-dihydro-2,2-dioxo-4-oxo-1H-2,3-benzothiazin-6-yl] urea] | 3.4 | – | 100
13 | Cc1cccc(NC(=O)NC2N=C(C3CCCCC3)c3ccccc3N(C)C2=O)c1 (single isomer, unassigned) [7 (Peak A)] | 0.47 | 0.92 | –
14 | CC(C)S(=O)(=O)NC(=O)c1cccc(NC(=O)NC2N=C(C3CCCCC3)c3ccccc3N(C)C2=O)c1 (single isomer, unassigned) [24 (Peak A)] | – | 0.7 | 1180
15 | Cc1ccc(NC(=O)N[C@@H]2N=C(C3CCCCC3)c3ccccc3N(C)C2=O)cc1C(=O)NS(C)(=O)=O [Example 34, N-[3(R)-5-Cyclohexyl-2,3-dihydro-1-methyl-2-oxo-1H-1,4-benzodiazepin-3-yl] N′-[4-methyl-3-(methylsulphonylaminocarbonyl)phenyl] urea] | 2.3 | – | 1700
16 | CN1C(=O)[C@@H](NC(=O)Nc2cccc(C(=O)NS(=O)(=O)c3ccccc3)c2)N=C(C2CCCCC2)c2ccccc21 [Example 35, N-[3(S)-5-Cyclohexyl-2,3-dihydro-1-methyl-2-oxo-1H-1,4-benzodiazepin-3-yl] N′-[3-(phenylsulphonylaminocarbonyl)phenyl] urea] | 50.8 | – | 10.2
